# Laboratory results: PubChem BioAssay (NCI)
#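 Results reflect a 48-hour exposure of cells in 96-well plates to compound at five concentrations. TGI marks complete inhibition of growth.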 Where a SMILES comes first, the peptide text is derived from it. The star is where a group is joined. Bn = c1ccc(C*)cc1
# Legend:
# Experiment in all cases: inhibition of tumour cell growth, NCI panel, 48 h
# COLO 205 colon = tested on: COLO 205 colon
# UACC-257 melanoma = tested on: UACC-257 melanoma
# A549 NSCLC = tested on: A549 NSCLC
# SK-MEL-28 melanoma = tested on: SK-MEL-28 melanoma
# MOLT-4 leukemia = tested on: MOLT-4 leukemia
# RXF 393 renal = tested on: RXF 393 renal
# BT-549 breast = tested on: BT-549 breast
# SNB-75 CNS = tested on: SNB-75 CNS
# ACHN renal = tested on: ACHN renal
# NCI-H226 lung = tested on: NCI-H226 lung
SMILES,TGI (COLO 205 colon),TGI (UACC-257 melanoma),TGI (A549 NSCLC),TGI (SK-MEL-28 melanoma),TGI (MOLT-4 leukemia),TGI (RXF 393 renal),TGI (BT-549 breast),TGI (SNB-75 CNS),TGI (ACHN renal),TGI (NCI-H226 lung)
O=C(O)CSC(NC(=O)C(C(F)(F)F)C(F)(F)F)(C(F)(F)F)C(F)(F)F,> 100 µM,> 100 µM,> 100 µM,> 100 µM,> 100 µM,> 100 µM,> 100 µM,> 100 µM,> 100 µM,–
CN(C)P(=O)(Oc1occc1C(O)Cc1ccccc1)N(C)C (stereo not given),> 100 µM,> 100 µM,> 100 µM,> 100 µM,–,> 100 µM,> 100 µM,> 100 µM,> 100 µM,> 100 µM
C[C@]1(S(=O)(=O)c2ccccc2)C[C@H]2N(Cc3ccccc3)[C@@H]1CCC21OCCO1,> 100 µM,69.3 µM,> 100 µM,> 100 µM,> 100 µM,> 100 µM,> 100 µM,> 100 µM,> 100 µM,–
COc1cc(C=C2C(=O)NC(=S)NC2=O)cc(OC)c1OC,> 100 µM,> 100 µM,> 100 µM,> 100 µM,> 100 µM,> 100 µM,> 100 µM,> 100 µM,> 100 µM,> 100 µM
OCC(O)C(O)C(O)/C=N/Nc1nc(O)c(/C=C2\C=Nc3ccccc32)[nH]1 (stereo not given),> 100 µM,> 100 µM,> 100 µM,> 100 µM,> 100 µM,> 100 µM,> 100 µM,> 100 µM,> 100 µM,> 100 µM
COC(=O)C1OC(O[C@H]2CC[C@]3(C)[C@H]4CC=C5[C@@H]6CC(C)(C)CC[C@]6(C(=O)OC6OCC(O)C(O)C6OC6OC(C)C(OC7OCC(OC8OCC(O)C(O)C8O)C(O)C7O)C(O)C6O)[C@H](O)C[C@@]5(C)[C@]4(C)CC[C@H]3C2(C)C)C(O)C(O)C1O (stereo not given in full),3.09 µM,13.1 µM,9.63 µM,4.24 µM,> 100 µM,25.8 µM,4.4 µM,11.3 µM,11.9 µM,6.23 µM
COC(=O)c1cc2c(cc1CC(Cc1ccc3c(c1)CCC3)C(=O)OC)CCC2 (stereo not given),> 100 µM,81.3 µM,> 100 µM,> 100 µM,> 100 µM,65.3 µM,> 100 µM,> 100 µM,> 100 µM,> 100 µM
COc1cc2c(cc1OC)C13CC[N+]4(C)CC5=CCOC6CC(=O)N2C1C6C5CC34[O-] (stereo not given),> 100 µM,> 100 µM,> 100 µM,> 100 µM,> 100 µM,> 100 µM,> 100 µM,> 100 µM,> 100 µM,> 100 µM
COC(=O)[C@H](Cc1ccccc1)NC(=O)c1ccc(CNC(=O)/C=C/c2cccc(Oc3ccccc3)c2)cc1,42.1 µM,21.8 µM,> 100 µM,23.9 µM,> 100 µM,24.2 µM,> 100 µM,> 100 µM,40.2 µM,> 100 µM
COC(=O)C(CC(C)C)NC(=O)C(N)Cc1ccc(OCc2ccccc2)cc1 (stereo not given) (H-Tyr(Bn)-Leu-OMe; configuration not given here),> 10 µM,> 10 µM,> 10 µM,> 10 µM,> 10 µM,> 10 µM,> 10 µM,> 10 µM,> 10 µM,> 10 µM
Nc1nc(Nc2ccc(Cl)cc2)sc1C(=O)c1cccs1,> 100 µM,> 100 µM,> 100 µM,> 100 µM,> 100 µM,42 µM,> 100 µM,–,> 100 µM,75.3 µM
O=C1CC(Sc2nc3ccc(I)cc3c(=O)n2Cc2ccccc2)C(=O)NN1 (stereo not given),34.5 µM,35.3 µM,89.4 µM,31.7 µM,42.6 µM,–,29.3 µM,24.5 µM,30.2 µM,25.2 µM
Cc1c(C#N)c(N)n(C2OCC(O)C(O)C2O)c(=S)c1C#N (stereo not given),–,> 100 µM,> 100 µM,> 100 µM,> 100 µM,> 100 µM,> 100 µM,> 100 µM,> 100 µM,> 100 µM
Nc1nc(Nc2ccccc2)sc1C(=O)c1c[nH]c2ccccc12,17.1 µM,22.6 µM,23.7 µM,26.3 µM,25.8 µM,23.1 µM,29.8 µM,–,62.2 µM,29.7 µM
COc1c(O)c(O)cc2c1-c1ccc(OC)c(=O)cc1C(NC(C)=O)CC2 (stereo not given),9.07 µM,76.9 µM,> 100 µM,> 100 µM,43.6 µM,> 41.2 µM,14.9 µM,63.9 µM,> 96.5 µM,70.2 µM
CC(C)CCn1nc(N)c2nc3ccccc3nc21,–,> 100 µM,> 100 µM,> 100 µM,94.9 µM,> 100 µM,> 100 µM,> 100 µM,> 100 µM,> 100 µM
OC1(c2ccc(Cl)cc2)c2ccc(CN3CCCC3)cc2C2=NCCN21 (stereo not given),22.7 µM,25.1 µM,33.3 µM,22.7 µM,41.9 µM,21.2 µM,21.3 µM,18.5 µM,30.3 µM,–

SMILES,TGI (COLO 205 colon),TGI (UACC-257 melanoma),TGI (A549 NSCLC),TGI (SK-MEL-28 melanoma),TGI (MOLT-4 leukemia),TGI (RXF 393 renal),TGI (BT-549 breast),TGI (SNB-75 CNS),TGI (ACHN renal),TGI (NCI-H226 lung)
O=C(CCc1cccc(O)c1)NCCCNC(=O)CCc1cccc(O)c1,> 100 µM,> 100 µM,> 100 µM,> 100 µM,> 100 µM,> 100 µM,> 100 µM,–,> 100 µM,–
O=c1n(Cc2ccccc2)c(=O)n2c(=O)n(Cc3ccccc3)c(=O)n12,> 100 µM,> 100 µM,–,> 100 µM,–,–,> 100 µM,> 100 µM,> 100 µM,> 100 µM
O=C1CS(=O)C23c4cc5ccccc5n4CCC2CCCN13 (stereo not given),> 100 µM,> 100 µM,> 100 µM,> 100 µM,> 100 µM,> 100 µM,> 100 µM,–,> 100 µM,> 100 µM
CN1COCc2cc3cc4c(cc3nc21)OCCO4,> 100 µM,> 100 µM,> 100 µM,–,> 100 µM,> 100 µM,> 100 µM,> 100 µM,> 100 µM,> 100 µM
O=C1CCc2ccc3c(c21)CC1(Cc2ccccc2C1)C3,> 100 µM,35.7 µM,29.6 µM,88.9 µM,> 100 µM,–,> 100 µM,> 100 µM,> 100 µM,67.8 µM
Cc1cc2c(nn1)-c1ccccc1C2=O,> 10 µM,–,> 10 µM,> 10 µM,> 10 µM,> 10 µM,> 10 µM,–,> 10 µM,> 10 µM
CC12CC1C(c1cccc([N+](=O)[O-])c1)(c1cccc([N+](=O)[O-])c1)N=N2 (stereo not given),41.5 µM,> 100 µM,> 100 µM,> 100 µM,> 100 µM,–,45.8 µM,> 100 µM,29.4 µM,> 100 µM
CCCCC/C(C=O)=C\c1ccccc1,> 100 µM,> 100 µM,–,> 100 µM,> 100 µM,> 100 µM,> 100 µM,> 100 µM,> 100 µM,> 100 µM
COc1cc([C@@H]2c3cc4c(cc3[C@@H](c3c(O)cc(O)c5c3O[C@H](c3ccc(O)c(O)c3)[C@@H](O)C5)[C@H]3COC(=O)[C@H]23)OCO4)cc(OC)c1O,> 100 µM,> 100 µM,> 100 µM,> 100 µM,> 100 µM,> 100 µM,> 100 µM,–,> 100 µM,–
CSC(SC)=C1C(=O)N(c2ccccc2)N=C1C,36.3 µM,> 100 µM,> 100 µM,–,52.9 µM,74.4 µM,81.9 µM,> 100 µM,> 100 µM,87.1 µM
COC(=O)C1=C(C)NC(C)=C([N+](=O)[O-])C1c1cccc(N=O)c1 (stereo not given),29 µM,25.1 µM,40.1 µM,32 µM,> 100 µM,27.6 µM,30.7 µM,–,24.8 µM,63.4 µM
O=C(O)CC(NC(=O)/C(=C/c1ccccc1O)NC(=O)c1ccccc1)C(=O)O (stereo not given),> 100 µM,> 100 µM,> 100 µM,> 100 µM,> 100 µM,–,> 100 µM,> 100 µM,> 100 µM,> 100 µM
N#Cc1c(C#N)c(-c2ccccc2)n(-c2ccccc2)c1N,> 100 µM,> 100 µM,> 100 µM,–,> 100 µM,> 100 µM,> 100 µM,86.4 µM,> 100 µM,> 100 µM
Cc1cn2c(C)csc2c1P(=O)(OC(C)C)OC(C)C,> 100 µM,> 100 µM,> 100 µM,> 100 µM,> 100 µM,> 100 µM,> 100 µM,> 100 µM,> 100 µM,–
N#CC(=N)c1ncn(-c2ccccc2N)c1N,> 100 µM,> 100 µM,> 100 µM,> 100 µM,> 100 µM,–,> 100 µM,> 100 µM,> 100 µM,> 100 µM
COP(=O)(OC)C12CCOCCN1c1ccccc1C2=O (stereo not given),> 100 µM,> 100 µM,> 100 µM,> 100 µM,> 100 µM,–,> 100 µM,> 100 µM,> 100 µM,> 100 µM
